{"source": "PubChem BioAssay AID1259407", "about": "(Chemical Carcinogenesis Research Information System (CCRIS), 2018)", "system": "CCRIS mutagenicity, Ames/micronucleus/aberration tests", "test": "CCRIS mutagenicity studies", "key": {"[1]": {"details": "Test System: AMES SALMONELLA TYPHIMURIUM, Strain/Indicator: TA98, Metabolic Activation: NONE, Method: PREINCUBATION"}, "[2]": {"details": "Test System: AMES SALMONELLA TYPHIMURIUM, Strain/Indicator: TA100, Metabolic Activation: NONE, Method: PREINCUBATION"}, "[3]": {"details": "Test System: AMES SALMONELLA TYPHIMURIUM, Strain/Indicator: TA1535, Metabolic Activation: NONE, Method: PREINCUBATION"}, "[4]": {"details": "Test System: AMES SALMONELLA TYPHIMURIUM, Strain/Indicator: TA1537, Metabolic Activation: NONE, Method: PREINCUBATION"}}, "note": "The source made the active and inactive calls. The rule behind the calls is not given here."}
{"compound": "Brc1c(Br)c(Br)c(Br)c(Br)c1Br", "values": [{"measurement": "mutagenic call", "setting": "Test System: AMES SALMONELLA TYPHIMURIUM, Strain/Indicator: TA98, Metabolic Activation: HAMSTER, LIVER, S-9, AROCLOR 1254, Method: PREINCUBATION", "result": "inactive; negative"}, {"measurement": "mutagenic call", "setting": "[1]", "result": "inactive; negative"}, {"measurement": "mutagenic call", "setting": "Test System: AMES SALMONELLA TYPHIMURIUM, Strain/Indicator: TA98, Metabolic Activation: RAT, LIVER, S-9, AROCLOR 1254, Method: PREINCUBATION", "result": "inactive; negative"}, {"measurement": "mutagenic call", "setting": "Test System: AMES SALMONELLA TYPHIMURIUM, Strain/Indicator: TA100, Metabolic Activation: HAMSTER, LIVER, S-9, AROCLOR 1254, Method: PREINCUBATION", "result": "inactive; negative"}, {"measurement": "mutagenic call", "setting": "[2]", "result": "inactive; negative"}, {"measurement": "mutagenic call", "setting": "Test System: AMES SALMONELLA TYPHIMURIUM, Strain/Indicator: TA100, Metabolic Activation: RAT, LIVER, S-9, AROCLOR 1254, Method: PREINCUBATION", "result": "inactive; negative"}, {"measurement": "mutagenic call", "setting": "Test System: AMES SALMONELLA TYPHIMURIUM, Strain/Indicator: TA1535, Metabolic Activation: HAMSTER, LIVER, S-9, AROCLOR 1254, Method: PREINCUBATION", "result": "inactive; negative"}, {"measurement": "mutagenic call", "setting": "[3]", "result": "inactive; negative"}, {"measurement": "mutagenic call", "setting": "Test System: AMES SALMONELLA TYPHIMURIUM, Strain/Indicator: TA1535, Metabolic Activation: RAT, LIVER, S-9, AROCLOR 1254, Method: PREINCUBATION", "result": "inactive; negative"}, {"measurement": "mutagenic call", "setting": "Test System: AMES SALMONELLA TYPHIMURIUM, Strain/Indicator: TA1537, Metabolic Activation: HAMSTER, LIVER, S-9, AROCLOR 1254, Method: PREINCUBATION", "result": "inactive; negative"}, {"measurement": "mutagenic call", "setting": "[4]", "result": "inactive; negative"}, {"measurement": "mutagenic call", "setting": "Test System: AMES SALMONELLA TYPHIMURIUM, Strain/Indicator: TA1537, Metabolic Activation: RAT, LIVER, S-9, AROCLOR 1254, Method: PREINCUBATION", "result": "inactive; negative"}]}
{"compound": "Cc1cccc(N)c1", "values": [{"measurement": "mutagenic call", "setting": "Test System: AMES SALMONELLA TYPHIMURIUM, Strain/Indicator: TA97, Metabolic Activation: HAMSTER, LIVER, S-9, AROCLOR 1254 (10 OR 30%), Method: PREINCUBATION", "result": "inactive; negative"}, {"measurement": "mutagenic call", "setting": "Test System: AMES SALMONELLA TYPHIMURIUM, Strain/Indicator: TA97, Metabolic Activation: NONE, Method: PREINCUBATION", "result": "inactive; negative"}, {"measurement": "mutagenic call", "setting": "Test System: AMES SALMONELLA TYPHIMURIUM, Strain/Indicator: TA97, Metabolic Activation: RAT, LIVER, S-9, AROCLOR 1254 (10 OR 30%), Method: PREINCUBATION", "result": "inactive; negative"}, {"measurement": "mutagenic call", "setting": "Test System: AMES SALMONELLA TYPHIMURIUM, Strain/Indicator: TA98, Metabolic Activation: HAMSTER, LIVER, S-9, AROCLOR 1254 (10 OR 30%), Method: PREINCUBATION", "result": "inactive; negative"}, {"measurement": "mutagenic call", "setting": "[1]", "result": "inactive; negative"}, {"measurement": "mutagenic call", "setting": "Test System: AMES SALMONELLA TYPHIMURIUM, Strain/Indicator: TA98, Metabolic Activation: RAT, LIVER, S-9, AROCLOR 1254 (10 OR 30%), Method: PREINCUBATION", "result": "inactive; negative"}, {"measurement": "mutagenic call", "setting": "Test System: AMES SALMONELLA TYPHIMURIUM, Strain/Indicator: TA100, Metabolic Activation: HAMSTER, LIVER, S-9, AROCLOR 1254 (10 OR 30%), Method: PREINCUBATION", "result": "inactive; negative"}, {"measurement": "mutagenic call", "setting": "[2]", "result": "inactive; negative"}, {"measurement": "mutagenic call", "setting": "Test System: AMES SALMONELLA TYPHIMURIUM, Strain/Indicator: TA100, Metabolic Activation: RAT, LIVER, S-9, AROCLOR 1254 (10 OR 30%), Method: PREINCUBATION", "result": "inactive; negative"}, {"measurement": "mutagenic call", "setting": "Test System: AMES SALMONELLA TYPHIMURIUM, Strain/Indicator: TA1535, Metabolic Activation: HAMSTER, LIVER, S-9, AROCLOR 1254 (10 OR 30%), Method: PREINCUBATION", "result": "inactive; negative"}, {"measurement": "mutagenic call", "setting": "[3]", "result": "inactive; negative"}, {"measurement": "mutagenic call", "setting": "Test System: AMES SALMONELLA TYPHIMURIUM, Strain/Indicator: TA1535, Metabolic Activation: RAT, LIVER, S-9, AROCLOR 1254 (10 OR 30%), Method: PREINCUBATION", "result": "inactive; negative"}, {"measurement": "mutagenic call", "setting": "Test System: AMES SALMONELLA TYPHIMURIUM, Strain/Indicator: TA1537, Metabolic Activation: HAMSTER, LIVER, S-9, AROCLOR 1254 (10 OR 30%), Method: PREINCUBATION", "result": "inactive; negative"}, {"measurement": "mutagenic call", "setting": "[4]", "result": "inactive; negative"}, {"measurement": "mutagenic call", "setting": "Test System: AMES SALMONELLA TYPHIMURIUM, Strain/Indicator: TA1537, Metabolic Activation: RAT, LIVER, S-9, AROCLOR 1254 (10 OR 30%), Method: PREINCUBATION", "result": "inactive; negative"}]}
{"compound": "CCn1cc(C(=O)O)c(=O)c2cc3c(cc21)OCO3", "values": [{"measurement": "mutagenic call", "setting": "Test System: AMES SALMONELLA TYPHIMURIUM, Strain/Indicator: TA102, Metabolic Activation: NONE, Method: STANDARD PLATE", "result": "active; positive"}, {"measurement": "mutagenic call", "setting": "Test System: AMES SALMONELLA TYPHIMURIUM, Strain/Indicator: TA2638, Metabolic Activation: NONE, Method: STANDARD PLATE", "result": "active; positive"}, {"measurement": "mutagenic call", "setting": "Test System: E. COLI, Strain/Indicator: WP2 (PKM101), Metabolic Activation: NONE, Method: STANDARD PLATE", "result": "active; positive"}, {"measurement": "mutagenic call", "setting": "Test System: E. COLI, Strain/Indicator: WP2 UVRA (PKM101), Metabolic Activation: NONE, Method: STANDARD PLATE", "result": "active; positive"}]}
{"compound": "CC(=O)N(C)N=O", "values": [{"measurement": "mutagenic call", "setting": "Test System: AMES SALMONELLA TYPHIMURIUM, Strain/Indicator: TA1535, Metabolic Activation: NONE, Method: STANDARD PLATE", "result": "active; positive"}, {"measurement": "mutagenic call", "setting": "Test System: E. COLI, Strain/Indicator: WU3610, Metabolic Activation: NONE, Method: SUSPENSION/PLATE", "result": "active; positive"}]}
{"compound": "Cc1ccc2c3c1ccc1cccc(c13)C2", "values": [{"measurement": "mutagenic call", "setting": "Test System: AMES SALMONELLA TYPHIMURIUM, Strain/Indicator: TA100, Metabolic Activation: RAT, LIVER, S-9, AROCLOR 1254, Method: STANDARD PLATE", "result": "active; positive"}]}
{"compound": "CCCCON(OC(C)=O)C(=O)c1ccc(C(C)(C)C)cc1", "values": [{"measurement": "mutagenic call", "setting": "Test System: AMES SALMONELLA TYPHIMURIUM, Strain/Indicator: TA100, Metabolic Activation: NONE, Method: STANDARD PLATE", "result": "active; positive"}, {"measurement": "mutagenic call", "setting": "Test System: AMES SALMONELLA TYPHIMURIUM, Strain/Indicator: TA100, Metabolic Activation: RAT, S-9, AROCLOR, Method: STANDARD PLATE", "result": "active; positive"}]}
{"compound": "O=c1c(O)c2c(c3c1ccc1[nH]c4c(ccc5ccccc54)cc13)O2", "values": [{"measurement": "mutagenic call", "setting": "Test System: AMES SALMONELLA TYPHIMURIUM, Strain/Indicator: TA98, Metabolic Activation: RAT, LIVER, AROCLOR 1254, NADPH GENERATING SYSTEM, Method: STANDARD PLATE", "result": "inactive; negative"}, {"measurement": "mutagenic call", "setting": "Test System: AMES SALMONELLA TYPHIMURIUM, Strain/Indicator: TA100, Metabolic Activation: RAT, LIVER, AROCLOR 1254, NADPH GENERATING SYSTEM, Method: STANDARD PLATE", "result": "inactive; negative"}, {"measurement": "mutagenic call", "setting": "Test System: CHINESE HAMSTER V-79, Strain/Indicator: V-79/8-AZAGUANINE, Method: STANDARD PLATE", "result": "inactive; negative"}]}
{"compound": "C=CCSS(=O)CC=C", "note": "(centres undefined)", "values": [{"measurement": "mutagenic call", "setting": "End Point: IN VITRO CHROMOSOMAL ABERRATIONS, Test System: HUMAN PERIPHERAL BLOOD LYMPHOCYTES, Metabolic Activation: NONE", "result": "inactive; negative"}, {"measurement": "mutagenic call", "setting": "End Point: IN VITRO CHROMOSOMAL ABERRATIONS, Test System: HUMAN PERIPHERAL BLOOD LYMPHOCYTES, Metabolic Activation: RAT, LIVER, S-9, PHENOBARBITONE", "result": "inactive; negative"}]}
{"compound": "CCCCOC(=O)C=Cc1ccc([N+](=O)[O-])o1", "values": [{"measurement": "mutagenic call", "setting": "[1]", "result": "active; positive"}]}
{"compound": "CC(C)=C(Cl)C=O", "values": [{"measurement": "mutagenic call", "setting": "Test System: AMES SALMONELLA TYPHIMURIUM, Strain/Indicator: TA98, Metabolic Activation: NONE, Method: PREINCUBATION, LIQUID INCUBATION", "result": "inactive; negative"}, {"measurement": "mutagenic call", "setting": "Test System: AMES SALMONELLA TYPHIMURIUM, Strain/Indicator: TA100, Metabolic Activation: NONE, Method: LIQUID INCUBATION", "result": "active; positive"}, {"measurement": "mutagenic call", "setting": "Test System: AMES SALMONELLA TYPHIMURIUM, Strain/Indicator: TA100, Metabolic Activation: NONE, Method: PREINCUBATION, LIQUID INCUBATION", "result": "active; positive"}, {"measurement": "mutagenic call", "setting": "Test System: AMES SALMONELLA TYPHIMURIUM, Strain/Indicator: TA1538, Metabolic Activation: NONE, Method: PREINCUBATION, LIQUID INCUBATION", "result": "inactive; negative"}]}
{"compound": "O.O.O.O.O.O.[Cl-].[Cl-].[Co+2]", "values": [{"measurement": "mutagenic call", "setting": "End Point: IN VIVO CHROMOSOMAL ABERRATIONS, Test System: BONE MARROW CELLS, Species: MOUSE, Strain/Sex: SWISS ALBINO/MALE, Route: ORAL", "result": "active; positive (structural and ploidy changes)"}, {"measurement": "mutagenic call", "setting": "Test System: CHINESE HAMSTER V-79, Strain/Indicator: SP5 V-79 (HPRT)/6-THIOGUANINE, Metabolic Activation: NONE, Method: STANDARD PLATE", "result": "inactive; negative"}, {"measurement": "mutagenic call", "setting": "Test System: CHINESE HAMSTER V-79, Strain/Indicator: SPD8 V-79 (HPRT)/6-THIOGUANINE, Metabolic Activation: NONE, Method: STANDARD PLATE", "result": "active; positive"}]}
